In publication PMC10096947 (2023) one finds apparent dissociation constant data, which are given here for one compound.

The assay has as its system DOX aptamer (DNA, aptamer) ACCATCTGTGTAAGGGGTAAGGGGTGGT
In words: electrochemical aptasensor, SWV, Langmuir isotherm fit. Particulars: PBS 0.1 M (Na+/K+ concentrations not given), PBS pH 7.4, room temperature, 20 min incubation, immobilised aptamer.

Each structure is given as a SMILES string.

In the case of `COc1cccc2c1C(=O)c1c(O)c3c(c(O)c1C2=O)C[C@@](O)(C(=O)CO)C[C@@H]3O[C@H]1C[C@H](N)[C@H](O)[C@H](C)O1`, the apparent dissociation constant came out at 2.55 µM.
